Results published in PubChem BioAssay AID588773 (The Scripps Research Institute Molecular Screening Center, 2011).
Active and inactive are the calls of the source.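 How the source made its calls: active means inhibition of plasma PAF acetylhydrolase at a set limit or more at 0.1 µM, with tenfold selectivity over all off-targets; inactive means inhibition below the limit or weaker selectivity.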

How the values were obtained:
[1] = system: ABHD6; experiment: competitive ABPP of pPAFAH versus proteome off-targets – biochemical, gel-based, FP-Rh fluorescence, mouse, HTS hit compounds, selectivity assay for pPAFAH inhibitor project, late-stage follow-up (AID 588773); conditions: for inhibition: stronger effect = higher value
[2] = system: LYPLA2; experiment: as above; conditions: at 10 µM
[3] = target: ABHD4 (UniProt Q8VD66); experiment: as above; conditions: at 10 µM
[4] = system: LYPLA1; experiment: as above; conditions: at 10 µM
[5] = system: FAAH; experiment: as above; conditions: stronger effect = higher value
[6] = system: ABHD3; experiment: as above; conditions: at 10 µM
[7] = target: Monoglyceride lipase (Mus musculus) (UniProt O35678); experiment: as above; conditions: MAGL; for inhibition: stronger effect = higher value
[8] = target: Platelet-activating factor acetylhydrolase (Mus musculus) (UniProt Q60963); experiment: as above; conditions: pPAFAH, stronger effect = higher value
[9] = as above; conditions: MW 30 kDa protein, stronger effect = higher value

Chain of ABHD4 (Q8VD66 whole entry, looked up): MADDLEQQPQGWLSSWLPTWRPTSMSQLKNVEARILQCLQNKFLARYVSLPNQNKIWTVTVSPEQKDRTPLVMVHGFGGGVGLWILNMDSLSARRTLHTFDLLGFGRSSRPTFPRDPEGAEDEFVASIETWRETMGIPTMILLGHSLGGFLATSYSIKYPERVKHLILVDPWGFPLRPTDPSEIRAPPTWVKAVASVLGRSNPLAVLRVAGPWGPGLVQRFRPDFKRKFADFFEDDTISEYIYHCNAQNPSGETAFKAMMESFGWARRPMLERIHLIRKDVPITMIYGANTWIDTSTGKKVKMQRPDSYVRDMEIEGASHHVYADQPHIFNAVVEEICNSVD
Chain of Monoglyceride lipase (Mus musculus) (O35678 whole entry, looked up): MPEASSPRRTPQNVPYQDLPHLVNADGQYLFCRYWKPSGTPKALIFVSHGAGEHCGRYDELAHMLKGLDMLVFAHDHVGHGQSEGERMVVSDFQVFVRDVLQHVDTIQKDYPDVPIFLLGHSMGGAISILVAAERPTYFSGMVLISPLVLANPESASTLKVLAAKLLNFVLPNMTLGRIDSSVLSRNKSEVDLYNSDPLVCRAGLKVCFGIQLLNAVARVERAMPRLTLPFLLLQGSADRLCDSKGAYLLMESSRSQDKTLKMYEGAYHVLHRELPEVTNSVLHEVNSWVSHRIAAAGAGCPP
Chain of Platelet-activating factor acetylhydrolase (Mus musculus) (Q60963 whole entry, looked up): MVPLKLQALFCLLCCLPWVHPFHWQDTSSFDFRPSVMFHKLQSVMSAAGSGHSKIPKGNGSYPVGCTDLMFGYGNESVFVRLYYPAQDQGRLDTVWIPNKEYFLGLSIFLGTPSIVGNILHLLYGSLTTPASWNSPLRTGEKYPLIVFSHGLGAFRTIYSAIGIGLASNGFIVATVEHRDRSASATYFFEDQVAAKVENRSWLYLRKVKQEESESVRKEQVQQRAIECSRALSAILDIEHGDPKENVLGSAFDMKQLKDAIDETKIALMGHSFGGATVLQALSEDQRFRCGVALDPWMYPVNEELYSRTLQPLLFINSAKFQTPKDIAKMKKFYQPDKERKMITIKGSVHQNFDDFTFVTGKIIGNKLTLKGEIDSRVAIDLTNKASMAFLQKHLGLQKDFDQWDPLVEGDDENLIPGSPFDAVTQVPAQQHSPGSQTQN

SMILES	inhibition ([1]; at 10 µM)	inhibition ([1]; inhibition, at 1 µM)	outcome [2]	outcome [3]	outcome [4]	inhibition ([5]; at 10 µM)	inhibition ([5]; inhibition, at 1 µM)	outcome [6]	outcome ([7]; at 10 µM)	inhibition ([8]; at 10 µM)	inhibition ([8]; inhibition, at 0.1 µM)	inhibition ([8]; inhibition, at 1 µM)	outcome ([1]; at 10 µM)	inhibition ([1]; inhibition, at 0.1 µM)	inhibition ([9]; at 0.1 µM)	inhibition ([9]; at 1 µM)	inhibition ([5]; inhibition, at 0.1 µM)	inhibition ([7]; at 10 µM)	inhibition ([7]; inhibition, at 1 µM)
CCCCOC(=O)c1ccc(OC(=O)N2CCOCC2)cc1	22% (inactive)	9%	inactive	inactive	inactive	62% (inactive)	30%	inactive	inactive	90% (inactive)	5%	70%	–	–	–	–	–	–	–
O=C(/C=C/c1cccs1)c1cc(Br)ccc1OC(=O)N1CCOCC1	–	–	inactive	inactive	inactive	61% (inactive)	18%	inactive	inactive	75% (inactive)	–	56%	inactive	–	–	–	–	–	–
O=C(Oc1ccc(-c2ccccc2)cc1)N1CCOCC1	25% (inactive)	16%	inactive	inactive	inactive	83% (inactive)	31%	inactive	–	94% (inactive)	32%	78%	–	12%	21%	27%	23%	20% (inactive)	6%
O=C(CCCSc1ccc(Cl)cc1)Nc1cc(S(=O)(=O)N2CCOCC2)ccc1O	26% (inactive)	–	inactive	inactive	inactive	25% (inactive)	–	inactive	–	88% (inactive)	18%	50%	–	–	–	–	–	27% (inactive)	–
O=C(Oc1nsnc1N1CCOCC1)N1CCOCC1	39% (inactive)	29%	inactive	inactive	inactive	85% (inactive)	80%	inactive	inactive	86% (inactive)	–	28%	–	–	4%	23%	–	–	–
O=C(Oc1ccc(-c2ccccc2)cc1)N1CCCCC1	53% (inactive)	34%	inactive	inactive	inactive	99% (inactive)	56%	inactive	–	95% (inactive)	35%	33%	–	–	18%	60%	–	40% (inactive)	36%
O=C(Oc1ccc([N+](=O)[O-])cc1)N1CCC(N2CCCCC2)CC1	48% (inactive)	22%	inactive	inactive	inactive	60% (inactive)	30%	inactive	–	92% (inactive)	–	66%	–	–	–	22%	–	45% (inactive)	23%
O=C(Oc1ccc(Oc2ccccc2)cc1)N1CCC(O)CC1	39% (inactive)	19%	inactive	inactive	inactive	17% (inactive)	2%	inactive	inactive	92% (inactive)	–	62%	–	–	–	–	–	–	–
CN(C)C(=O)Oc1noc2cc(Cl)ccc12	65% (inactive)	26%	inactive	inactive	inactive	100%	100%	inactive	–	100% (inactive)	47%	92%	–	21%	–	6%	100%	33% (inactive)	2%
